Experimental data: ChEMBL document CHEMBL5518206, “Hit-to-Lead Identification and Validation of a Triaromatic Pleuromutilin Antibiotic Candidate” (J Med Chem, 2024)
Converted amounts (≈) assume the structure as drawn. The source made the active and inactive calls. The rule behind the calls is not given here.

Experiments:
[1] = in vitro; settings: mouse
[2] = in vitro; settings: mouse; remark: listed apart in the source
[3] = in vitro; settings: human
[4] = in vitro; settings: human; remark: listed apart in the source
[5] = in vitro; settings: pig
[6] = in vitro; settings: pig; remark: listed apart in the source
[7] = Inhibition of P-gp efflux in MDCKII-MDR1 cells using calcein-AM as substrate assessed as intracellular calcein fluorescence preincubated for 15 mins followed by substrate addition and measured by fluorescence based assay; type: cell-based; settings: Canis lupus familiaris
[8] = system: Staphylococcus aureus; assay: Antibacterial activity against multi drug-resistant Staphylococcus aureus USA300 FPR3757 assessed as inhibition of visible growth incubated for 20 to 24 hrs by microbroth serial dilution assay; type: functional; settings: time 20-24 hrs, read-out: MIC100
[9] = system: Streptococcus pneumoniae; assay: Antibacterial activity against Streptococcus pneumoniae assessed as inhibition of visible growth incubated for 20 to 24 hrs by microbroth serial dilution assay; type: functional; settings: time 20-24 hrs, read-out: MIC100
[10] = system: Enterococcus faecalis; assay: Antibacterial activity against Enterococcus faecalis assessed as inhibition of visible growth incubated for 20 to 24 hrs by microbroth serial dilution assay; type: functional; settings: time 20-24 hrs, read-out: MIC100
[11] = system: Enterococcus faecium; assay: Antibacterial activity against Vancomycin-resistant Enterococcus faecium assessed as inhibition of visible growth incubated for 20 to 24 hrs by microbroth serial dilution assay; type: functional; settings: time 20-24 hrs, read-out: MIC100
[12] = system: Enterococcus faecium; assay: Antibacterial activity against Linezolid/Ampicillin/ciprofloxacin/Vancomycin-resistant Enterococcus faecium assessed as inhibition of visible growth incubated for 20 to 24 hrs by microbroth serial dilution assay; type: functional; settings: time 20-24 hrs, read-out: MIC100
[13] = Solubility of the compound in Dulbecco's PBS at 20 degree C measured after 24 hrs
[14] = system: MDCK-MDR1; assay: Cytotoxicity against MDCKII-MDR1 cells assessed as cell viability at 100 uM measured by MTT assay; type: toxicity, cell-based, Canis lupus familiaris; settings: dog, mdck-mdr1, 100 µM
[15] = system: Escherichia coli; assay: Antibacterial activity against Escherichia coli assessed as inhibition of visible growth incubated for 20 to 24 hrs by microbroth serial dilution assay; type: functional, organism-based; settings: time 20-24 hrs
[16] = system: Listeria; assay: Antibacterial activity against Listeria assessed as inhibition of visible growth incubated for 20 to 24 hrs by microbroth serial dilution assay; type: functional, organism-based; settings: time 20-24 hrs
[17] = system: Staphylococcus epidermidis; assay: Antibacterial activity against Staphylococcus epidermidis assessed as inhibition of visible growth incubated for 20 to 24 hrs by microbroth serial dilution assay; type: functional, organism-based; settings: time 20-24 hrs

Row | Structure (SMILES) | IC50 [7] | MIC [8] | MIC [9] | MIC [10] | MIC [11] | MIC [12] | solubility at 24 h [13] | Activity [14] | further results
1 | O=C(O)Cc1ccccc1Nc1c(Cl)cccc1Cl [DICLOFENAC] | – | – | – | – | – | – | – | – | half-life at 0.5 h, 1 µM ([1]; microsomes): 51.7 min; CLint scaled at 0.5 h, 1 µM ([2]; microsomes): 6.36 L/h/kg; half-life at 0.5 h, 1 µM ([3]; microsomes): 18.8 min; CLint scaled at 0.5 h, 1 µM ([4]; microsomes): 19.9 L/h/kg; half-life at 0.5 h, 1 µM ([5]; microsomes): 37.9 min; CLint scaled at 0.5 h, 1 µM ([6]; microsomes): 8.7 L/h/kg
2 | C=C[C@]1(C)C[C@@H](OC(=O)Cn2cc(-c3ccc([C@H](C)n4cnc5c(N)ncnc54)cc3)nn2)[C@]2(C)[C@H](C)CC[C@]3(CCC(=O)[C@H]32)[C@@H](C)[C@@H]1O | 81 µM | 0.12 µg/mL (≈ 0.18 µM) | 1 µg/mL (≈ 1.5 µM) | 1 µg/mL (≈ 1.5 µM) | 0.5 µg/mL (≈ 0.75 µM) | 0.5 µg/mL (≈ 0.75 µM) | – | – | –
3 | C=C[C@]1(C)C[C@@H](OC(=O)Cn2cc(-c3ccc(Cn4cnc5c(N)ncnc54)c(O)c3)nn2)[C@]2(C)[C@H](C)CC[C@]3(CCC(=O)[C@H]32)[C@@H](C)[C@@H]1O | > 100 µM | 0.03 µg/mL (≈ 0.0449 µM) | 0.25 µg/mL (≈ 0.374 µM) | 0.25 µg/mL (≈ 0.374 µM) | 0.25 µg/mL (≈ 0.374 µM) | 0.25 µg/mL (≈ 0.374 µM) | 2.5 µM (≈ 1.67 µg/mL) | Non-Toxic | half-life at 0.5 h, 1 µM ([1]; liver microsomes): 0.56 min; CLint scaled at 0.5 h, 1 µM ([2]; liver microsomes): 586 L/h/kg; half-life at 0.5 h, 1 µM ([3]; liver microsomes): 1.2 min; CLint scaled at 0.5 h, 1 µM ([4]; liver microsomes): 317 L/h/kg
4 | C=C[C@]1(C)C[C@@H](OC(=O)Cn2cc(-c3ccc(Cn4cnc5c(N)nc(N)nc54)cc3)nn2)[C@]2(C)[C@H](C)CC[C@]3(CCC(=O)[C@H]32)[C@@H](C)[C@@H]1O | > 100 µM | 0.06 µg/mL (≈ 0.0898 µM) | 0.5 µg/mL (≈ 0.749 µM) | 0.25 µg/mL (≈ 0.374 µM) | 0.12 µg/mL (≈ 0.18 µM) | 0.12 µg/mL (≈ 0.18 µM) | 1.9 µM (≈ 1.27 µg/mL) | Non-Toxic | –
5 | C=C[C@]1(C)C[C@@H](OC(=O)Cn2cc(-c3ccc([C@@H](C)n4cnc5c(N)ncnc54)cc3)nn2)[C@]2(C)[C@H](C)CC[C@]3(CCC(=O)[C@H]32)[C@@H](C)[C@@H]1O | 50 µM | 0.12 µg/mL (≈ 0.18 µM) | 0.25 µg/mL (≈ 0.375 µM) | 0.5 µg/mL (≈ 0.75 µM) | 0.25 µg/mL (≈ 0.375 µM) | 0.25 µg/mL (≈ 0.375 µM) | 2.6 µM (≈ 1.73 µg/mL) | – | –
6 | C=C[C@]1(C)C[C@@H](OC(=O)Cn2cc(-c3ccc([C@H](C)n4cnc5c(N6CCNCC6)ncnc54)cc3)nn2)[C@]2(C)[C@H](C)CC[C@]3(CCC(=O)[C@H]32)[C@@H](C)[C@@H]1O | – | 0.5 µg/mL (≈ 0.679 µM) | 0.5 µg/mL (≈ 0.679 µM) | 0.5 µg/mL (≈ 0.679 µM) | 0.5 µg/mL (≈ 0.679 µM) | 0.5 µg/mL (≈ 0.679 µM) | – | – | –
7 | C=C[C@]1(C)C[C@@H](OC(=O)Cn2cc(-c3ccc([C@@H](C)n4cnc5c(N6CCNCC6)ncnc54)cc3)nn2)[C@]2(C)[C@H](C)CC[C@]3(CCC(=O)[C@H]32)[C@@H](C)[C@@H]1O | 7 µM | 0.25 µg/mL (≈ 0.34 µM) | 0.25 µg/mL (≈ 0.34 µM) | 0.5 µg/mL (≈ 0.679 µM) | 0.25 µg/mL (≈ 0.34 µM) | 0.25 µg/mL (≈ 0.34 µM) | 10 µM (≈ 7.36 µg/mL) | – | –
8 | C=C[C@]1(C)C[C@@H](OC(=O)Cn2cc(-c3ccc(Cn4cnc5c(N)ncnc54)nc3)nn2)[C@]2(C)[C@H](C)CC[C@]3(CCC(=O)[C@H]32)[C@@H](C)[C@@H]1O | 98 µM | 0.03 µg/mL (≈ 0.0459 µM) | 0.25 µg/mL (≈ 0.382 µM) | 0.25 µg/mL (≈ 0.382 µM) | 0.12 µg/mL (≈ 0.184 µM) | 0.12 µg/mL (≈ 0.184 µM) | 6.7 µM (≈ 4.38 µg/mL) | Non-Toxic | half-life at 0.5 h, 1 µM ([1]; liver microsomes): 0.58 min; CLint scaled at 0.5 h, 1 µM ([2]; liver microsomes): 571 L/h/kg; half-life at 0.5 h, 1 µM ([3]; liver microsomes): 1.9 min; CLint scaled at 0.5 h, 1 µM ([4]; liver microsomes): 194 L/h/kg
9 | C=C[C@]1(C)C[C@@H](OC(=O)Cn2cc(-c3ccc(Cn4cnc5c(N6CCN(C)CC6)ncnc54)cc3)nn2)[C@]2(C)[C@H](C)CC[C@]3(CCC(=O)[C@H]32)[C@@H](C)[C@@H]1O | 2 µM | – | 0.12 µg/mL (≈ 0.163 µM) | – | – | 0.12 µg/mL (≈ 0.163 µM) | – | Non-Toxic | Activity [15]: inactive; Activity [16]: inactive; Activity [17]: inactive; half-life at 0.5 h, 1 µM ([1]; liver microsomes): 1.1 min; CLint scaled at 0.5 h, 1 µM ([2]; liver microsomes): 293 L/h/kg; half-life at 0.5 h, 1 µM ([3]; liver microsomes): 1.4 min; CLint scaled at 0.5 h, 1 µM ([4]; liver microsomes): 266 L/h/kg; half-life at 0.5 h, 1 µM ([5]; liver microsomes): 0.5 min; CLint scaled at 0.5 h, 1 µM ([6]; liver microsomes): 630 L/h/kg
10 | C=C[C@]1(C)C[C@@H](OC(=O)Cn2cc(-c3ccc(Cn4cnc5c(N)ncnc54)c(OC)c3)nn2)[C@]2(C)[C@H](C)CC[C@]3(CCC(=O)[C@H]32)[C@@H](C)[C@@H]1O | 46 µM | 0.06 µg/mL (≈ 0.0879 µM) | 0.25 µg/mL (≈ 0.366 µM) | 0.25 µg/mL (≈ 0.366 µM) | 0.12 µg/mL (≈ 0.176 µM) | 0.12 µg/mL (≈ 0.176 µM) | 2.2 µM (≈ 1.5 µg/mL) | – | –
11 | C=C[C@]1(C)C[C@@H](OC(=O)Cn2cc(-c3ccc(Cn4cnc5c(N6CCNCC6)ncnc54)cc3)nn2)[C@]2(C)[C@H](C)CC[C@]3(CCC(=O)[C@H]32)[C@@H](C)[C@@H]1O | 10 µM | 0.25 µg/mL (≈ 0.346 µM) | 0.25 µg/mL (≈ 0.346 µM) | 0.25 µg/mL (≈ 0.346 µM) | 0.06 µg/mL (≈ 0.0831 µM) | 0.12 µg/mL (≈ 0.166 µM) | 31 µM (≈ 22.4 µg/mL) | – | –
